From patent US9833497B2, “Human originated EGF domain proteins and use of the same” (CHENGDU SOURCEBIO LIMITED-LIABILITY COMPANY, priority 2013, dated 2017) come the findings set out here.

What all share (format): cell-based
One assay deals with E. coli DH5α. Nature of the assay: Antibacterial activity: MIC and growth curve against E. coli DH5α in 96-well plate. The conditions noted are these: minimal inhibitory concentration against E. coli DH5α; 96-well plate, 5×10^5 CFU/mL, 37° C., judged after 8 h. Put shortly:
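Log-phase bacteria (OD600 ~0.5) resuspended in LB at 5×10^5 CFU/mL, exposed to recombinant protein at 50, 25, 12.5 μg/mL final in triplicate, 37 °C shaking at 175 rpm. OD600 read every 30 min; MIC is lowest concentration showing no growth.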

The test system of a further assay is E. coli BL21. The assay can be described thus: MIC against Gram-negative bacteria: E. coli BL21. The conditions noted are these: 5×10^5 CFU/mL; for MIC (μg/mL) E. coli BL21: 10 h cultivation at 37° C. The method in brief: (§1)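 Antibacterial activity of purified human EGF domain proteins: two-fold concentration series, triplicate wells, LB broth, 5×10^5 CFU/mL bacteria, 37° C shaking incubation. The lowest concentration without growth defines the MIC.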

For another assay, the system named is Pseudomonas aeruginosa. Nature of the assay: MIC against Gram-negative bacteria: Pseudomonas aeruginosa. The conditions noted are these: 5×10^5 CFU/mL; for MIC (μg/mL) P. aeruginosa: 10 h cultivation at 37° C. Put shortly:
as §1

A further assay relates to Klebsiella pneumonia. The assay can be described thus: MIC against Gram-negative bacteria: Klebsiella pneumonia. The conditions noted are these: 5×10^5 CFU/mL; for MIC (μg/mL) K. pneumonia: 10 h cultivation at 37° C. Put shortly:
as §1

For another assay, the system named is Enterobacter cloacae. Nature of the assay: MIC against Gram-negative bacteria: Enterobacter cloacae. The conditions noted are these: 5×10^5 CFU/mL; for MIC (μg/mL) E. cloacae: 10 h cultivation at 37° C. Put shortly:
as §1

A further assay concerns Aeromonas hydrophila. Nature of the assay: MIC against Gram-negative bacteria: Aeromonas hydrophila. The conditions noted are these: 5×10^5 CFU/mL; for MIC (μg/mL) A. hydrophila: 10 h cultivation at 37° C. The method in brief:
as §1

For a further assay, the system named is Citrobacter diversus. The assay can be described thus: MIC against Gram-negative bacteria: Citrobacter diversus. The conditions noted are these: 5×10^5 CFU/mL; for MIC (μg/mL) C. diversus: 10 h cultivation at 37° C. Put shortly: as §1
Another assay concerns Moraxella catarrhalis. The assay can be described thus: MIC against Gram-negative bacteria: Moraxella catarrhalis. The conditions noted are these: 5×10^5 CFU/mL; for MIC (μg/mL) M. catarrhalis: 10 h cultivation at 37° C. Put shortly:
as §1

In a further assay the test system is Proteus mirabilis. The assay can be described thus: MIC against Gram-negative bacteria: Proteus mirabilis. The conditions noted are these: 5×10^5 CFU/mL; for MIC (μg/mL) P. mirabilis: 10 h cultivation at 37° C. The method in brief:
as §1

The next assay concerns Proteus vulgaris. Nature of the assay: MIC against Gram-negative bacteria: Proteus vulgaris. The conditions noted are these: 5×10^5 CFU/mL; for MIC (μg/mL) P. vulgaris: 10 h cultivation at 37° C. Put shortly: as §1
The test system of the next assay is Serratia marcescens. Nature of the assay: MIC against Gram-negative bacteria: Serratia marcescens. The conditions noted are these: 5×10^5 CFU/mL; for MIC (μg/mL) S. marcescens: 10 h cultivation at 37° C. Put shortly: as §1

Broadly, the MIC is the smallest concentration in the dilution series that meets the test's criterion for growth inhibition. The low end stands for a more susceptible organism, the high end for a less susceptible organism.

In the assay with E. coli DH5α, “PRT447 (DVDECAQALHDRRPSQDCHNLSGSYQCTCPDGYRKIGPE; listed as Homo sapiens)” returned an MIC of 50 µg/mL. For the same substance, in the assay with E. coli BL21 (96-well plate, 37° C., 10 h), the “MIC against E. coli BL21” value turned out to be 25 µg/mL. Further, the “MIC against P. aeruginosa” value against Pseudomonas aeruginosa (96-well plate, 37° C., 10 h) amounted to 12.5 µg/mL. In addition, in the assay on Klebsiella pneumonia (96-well plate, 37° C., 10 h), the “MIC against K. pneumonia” value came to 25 µg/mL. Moreover, the “MIC against E. cloacae” value against Enterobacter cloacae (96-well plate, 37° C., 10 h) was found to be 50 µg/mL. In the assay with Aeromonas hydrophila (96-well plate, 37° C., 10 h), the “MIC against A. hydrophila” value is 25 µg/mL. In addition, in the assay with Citrobacter diversus (96-well plate, 37° C., 10 h), the “MIC against C. diversus” value is 12.5 µg/mL. For the same substance, the “MIC against M. catarrhalis” value against Moraxella catarrhalis (96-well plate, 37° C., 10 h) is 25 µg/mL. The “MIC against P. mirabilis” value in the assay with Proteus mirabilis (96-well plate, 37° C., 10 h) is 50 µg/mL. Further, in the assay on Proteus vulgaris (96-well plate, 37° C., 10 h), the “MIC against P. vulgaris” value turned out to be 12.5 µg/mL. In addition, in the assay with Serratia marcescens (96-well plate, 37° C., 10 h), the “MIC against S. marcescens” value turned out to be 50 µg/mL.
The substance “PRT255 (DVDECVGLQPVCPQGTTCINTGGSFQCVSPECPEG; listed as Homo sapiens)” came in with an MIC against E. coli DH5α of 12.5 µg/mL. Further, the “MIC (μg/mL) E. coli BL21” value with E. coli BL21 is 12.5 µg/mL. In addition, the “MIC (μg/mL) P. aeruginosa” value with Pseudomonas aeruginosa is 12.5 µg/mL. The “MIC (μg/mL) K. pneumonia” value with Klebsiella pneumonia is 12.5 µg/mL. Besides, the “MIC (μg/mL) E. cloacae” value in the assay on Enterobacter cloacae was found to be 12.5 µg/mL. The “MIC (μg/mL) A. hydrophila” value in the assay on Aeromonas hydrophila turned out to be 25 µg/mL. In addition, in the assay with Citrobacter diversus, the “MIC (μg/mL) C. diversus” value was determined as 12.5 µg/mL. Moreover, the “MIC (μg/mL) M. catarrhalis” value against Moraxella catarrhalis was 25 µg/mL. Besides, the “MIC (μg/mL) P. mirabilis” value in the assay with Proteus mirabilis turned out to be 100 µg/mL. In the assay with Proteus vulgaris, the “MIC (μg/mL) P. vulgaris” value turned out to be 25 µg/mL. In the assay on Serratia marcescens, the “MIC (μg/mL) S. marcescens” value was determined as 12.5 µg/mL.
Turning to “PRT629 (CPCPGQSACTTIPESREVVCTHCPPGQRGRRCEVCDDGFFGDPLGLFGHPQPCHQ; listed as Homo sapiens)”, in the assay with E. coli DH5α, the MIC turned out to be 12.5 µg/mL. Besides, the “MIC E. coli BL21” value in the assay with E. coli BL21 (96-well plate, 37° C., 10 h) was found to be 25 µg/mL. Moreover, the “MIC P. aeruginosa” value with Pseudomonas aeruginosa (96-well plate, 37° C., 10 h) stood at 12.5 µg/mL. In the assay with Klebsiella pneumonia (96-well plate, 37° C., 10 h), the “MIC K. pneumonia” value came to 25 µg/mL. In the assay on Enterobacter cloacae (96-well plate, 37° C., 10 h), the “MIC E. cloacae” value was 12.5 µg/mL. The “MIC A. hydrophila” value in the assay with Aeromonas hydrophila (96-well plate, 37° C., 10 h) is 12.5 µg/mL. In addition, the “MIC C. diversus” value against Citrobacter diversus (96-well plate, 37° C., 10 h) turned out to be 12.5 µg/mL. The “MIC M. catarrhalis” value against Moraxella catarrhalis (96-well plate, 37° C., 10 h) stood at 12.5 µg/mL. Further, the “MIC P. mirabilis” value against Proteus mirabilis (96-well plate, 37° C., 10 h) was determined as 12.5 µg/mL. In addition, the “MIC P. vulgaris” value in the assay with Proteus vulgaris (96-well plate, 37° C., 10 h) is 50 µg/mL. The “MIC S. marcescens” value against Serratia marcescens (96-well plate, 37° C., 10 h) worked out at 12.5 µg/mL.
Substance “PRT770 (FRDPCDPNPCQNDGICVNVKGMASCRCISGHAFFYTGERCQ; listed as Homo sapiens)” had an MIC with E. coli DH5α of 50 µg/mL. Besides, the “MIC (μg/mL) E. coli BL21” value against E. coli BL21 is 12.5 µg/mL. For the same substance, the “MIC (μg/mL) P. aeruginosa” value against Pseudomonas aeruginosa came to 50 µg/mL. In addition, the “MIC (μg/mL) K. pneumonia” value against Klebsiella pneumonia was 12.5 µg/mL. For the same substance, the “MIC (μg/mL) E. cloacae” value against Enterobacter cloacae worked out at 50 µg/mL. For the same substance, the “MIC (μg/mL) A. hydrophila” value in the assay with Aeromonas hydrophila was found to be 25 µg/mL. For the same substance, the “MIC (μg/mL) C. diversus” value with Citrobacter diversus worked out at 12.5 µg/mL. Also, in the assay on Moraxella catarrhalis, the “MIC (μg/mL) M. catarrhalis” value turned out to be 25 µg/mL. The “MIC (μg/mL) P. mirabilis” value with Proteus mirabilis stood at 50 µg/mL. Moreover, the “MIC (μg/mL) P. vulgaris” value in the assay on Proteus vulgaris came out at 12.5 µg/mL. Besides, the “MIC (μg/mL) S. marcescens” value in the assay with Serratia marcescens is 50 µg/mL.
On to “PRT849 (CPCSAVTSTGSCSIKSSELEPECDQCKDGYIGPNCNKCENGYYNFDSICRK; listed as Homo sapiens)”, for which the MIC in the assay on E. coli DH5α was 12.5 µg/mL. For the same substance, the “MIC (μg/mL) E. coli BL21” value in the assay with E. coli BL21 was found to be 12.5 µg/mL. The “MIC (μg/mL) P. aeruginosa” value against Pseudomonas aeruginosa turned out to be 12.5 µg/mL. Besides, in the assay on Klebsiella pneumonia, the “MIC (μg/mL) K. pneumonia” value is 12.5 µg/mL. Further, the “MIC (μg/mL) E. cloacae” value with Enterobacter cloacae is 12.5 µg/mL. The “MIC (μg/mL) A. hydrophila” value against Aeromonas hydrophila was 25 µg/mL. The “MIC (μg/mL) C. diversus” value in the assay with Citrobacter diversus is 12.5 µg/mL. Besides, in the assay on Moraxella catarrhalis, the “MIC (μg/mL) M. catarrhalis” value is 25 µg/mL. In addition, the “MIC (μg/mL) P. mirabilis” value in the assay on Proteus mirabilis is 12.5 µg/mL. Besides, the “MIC (μg/mL) P. vulgaris” value with Proteus vulgaris was found to be 12.5 µg/mL. In addition, the “MIC (μg/mL) S. marcescens” value with Serratia marcescens amounted to 25 µg/mL.
